Earlier results on 5 compounds are cited in US11291673B2, “Topical doxycycline hydrogel with improved long-term stability” (Nanopharmaceutics, Inc., priority 2019, dated 2022).

Series [1] concerns experimental dry eye (EDE) model.
The test system of the next series is mastitis. The following applies: homogeneous suspension applied to the udder of a cow.
The conditions of series [2]: compared to aqueous suspensions containing amphoteric dioxytetracycline.

Regarding `C[C@H]1c2cccc(O)c2C(O)=C2C(=O)[C@]3(O)C(O)=C(C(N)=O)C(=O)[C@H](N(C)C)[C@@H]3[C@@H](O)[C@@H]21` [4-epidoxycycline], in series [1], the “anti-inflammatory and anti-proteolytic effects” value is “lack of anti-inflammatory and anti-proteolytic effects”. For the compound `C[C@@H]1c2cccc(O)c2C(O)=C2C(=O)[C@]3(O)C(O)=C(C(N)=O)C(=O)[C@@H](N(C)C)[C@@H]3[C@@H](O)[C@@H]21` [6-epidoxycycline], in series [1], the “anti-inflammatory and anti-proteolytic effects” value was “lack of anti-inflammatory and anti-proteolytic effects”.

One may read the aqueous solubility as the dissolved amount per volume that the medium holds. Consider `C[C@H]1c2cccc(O)c2C(=O)C2=C(O)[C@]3(O)C(=O)C(C(N)=O)=C(O)[C@@H](N(C)C)[C@@H]3[C@@H](O)[C@@H]21` [Doxycycline monohydrate], for which the aqueous solubility (pHs above 6) is less than 800 µg/mL. As for `C[C@H]1c2cccc(O)c2C(=O)C2=C(O)[C@]3(O)C(=O)C(C(N)=O)=C(O)[C@@H](N(C)C)[C@@H]3[C@@H](O)[C@@H]21` [Doxycycline], the solubility entry (neutral pH) is “less than 10 mg/ml”.

On to calcium dioxytetracycline, for which the alleviation of mastitis result with mastitis was “rapid and complete alleviation of mastitis”. The stability of suspension entry in series [2] is “superior stability”.
